In US20240360178A1, “MACROCYCLIC IMMUNOMODULATORS” (Bristol-Myers Squibb Company, priority 2021, published 2024):
Positions of bridges follow the written chain, without caps; N, C: chain ends. Non-standard residues stand in square brackets, D forms with d. Residues, ends and D or L forms follow the SMILES beside them. Phe(3,4,5-F3) = N[C@@H](Cc1cc(F)c(F)c(F)c1)C(=O)O; Bip = N[C@@H](Cc1ccc(-c2ccccc2)cc1)C(=O)O; Ala(cPent) = N[C@@H](CC1CCCC1)C(=O)O; Ala(cPr) = N[C@@H](CC1CC1)C(=O)O; NMeF = CN[C@@H](Cc1ccccc1)C(=O)O; Cha = N[C@@H](CC1CCCCC1)C(=O)O; NMeN = CN[C@@H](CC(N)=O)C(=O)O; Tle = CC(C)(C)[C@H](N)C(=O)O; NMeA = CN[C@@H](C)C(=O)O; Sar = CNCC(=O)O

What follows are compounds tested against T1, human PD-1 (Jurkat-PD-1 cells) / PE-labeled human PD-L1-Ig (Homo sapiens, UniProt Q15116) (assay: Jurkat-PD-1 Cell Binding High-Content Screening Assay (CBA); Jurkat hPD1-PDL1 assay). Settings: Jurkat cell line over-expressing human PD-1; PE-labeled PD-L1-Ig 20 nM final; compound incubated 2 hours at 37° C.; read-out: Jurkat HPD1-PDL1 IC50.
T1 construct: expressed in transfected cells; host or cells: Jurkat cell line over-expressing human PD-1
Method in brief: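 Read-out is high-content imaging of PE fluorescence on PD-1-over-expressing Jurkat cells. Cells are first exposed to compound for 2 hours at 37° C in serum-containing DMEM, after which PE-labeled PD-L1-Ig is added at 20 nM final.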

T1 sequence (Q15116 25-288): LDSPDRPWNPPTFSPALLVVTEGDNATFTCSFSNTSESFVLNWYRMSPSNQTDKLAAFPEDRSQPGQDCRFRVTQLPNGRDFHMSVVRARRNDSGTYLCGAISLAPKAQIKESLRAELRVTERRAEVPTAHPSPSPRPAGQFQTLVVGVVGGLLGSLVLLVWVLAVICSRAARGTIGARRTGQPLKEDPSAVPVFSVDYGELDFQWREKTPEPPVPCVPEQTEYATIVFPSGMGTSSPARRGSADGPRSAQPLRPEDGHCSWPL

IC50 [nM]	Structure (SMILES)
600	CC(C)C[C@@H]1NC(=O)[C@H](Cc2c[nH]c3ccccc23)NC(=O)[C@H](CC(=O)O)NC(=O)[C@H](Cc2ccc(O)cc2)NC(=O)[C@H](CC(N)=O)NC(=O)CSC[C@@H](C(=O)NCC(N)=O)NC(=O)[C@H](CO)NC(=O)[C@H](C(C)C)NC(=O)[C@H](CC(C)C)NC(=O)[C@H](CC(N)=O)NC(=O)CN(C)C(=O)[C@H](C)N(C)C(=O)[C@H](C(C)C)NC(=O)[C@H](Cc2ccc(-c3ccccc3)cc2)NC1=O [Example 1140] ({CH2CO}-NYDWL[Bip]V[NMeA][Sar]NLVSCG-NH2; thioether N-14)
610	CC(C)C[C@@H]1NC(=O)CSC[C@@H](C(=O)NCC(N)=O)NC(=O)[C@H](CO)NC(=O)[C@H](C(C)C)NC(=O)[C@H](CC(C)C)NC(=O)[C@H](CC(N)=O)NC(=O)CN(C)C(=O)[C@H](C)N(C)C(=O)[C@H](C(C)C)NC(=O)[C@H](Cc2ccc(-c3ccccc3)cc2)NC(=O)[C@H](CC(C)C)NC(=O)[C@H](Cc2c[nH]c3ccccc23)NC(=O)[C@H](CC(=O)O)NC(=O)[C@H](Cc2ccc(O)cc2)NC1=O [Example 1141] ({CH2CO}-LYDWL[Bip]V[NMeA][Sar]NLVSCG-NH2; thioether N-14)
610	CC[C@H](C)[C@@H]1NC(=O)[C@H](CC(C)C)NC(=O)[C@H](CC(N)=O)NC(=O)CN(C)C(=O)[C@H](C)N(C)C(=O)[C@H](C(C)C)NC(=O)[C@H](Cc2ccc(-c3ccccc3)cc2)NC(=O)[C@H](CC(C)C)NC(=O)[C@H](Cc2c[nH]c3ccccc23)NC(=O)[C@H](CC(=O)O)NC(=O)[C@H](Cc2ccc(O)cc2)NC(=O)[C@H](Cc2ccccc2)NC(=O)CSC[C@@H](C(=O)NCC(N)=O)NC(=O)[C@H](CO)NC1=O [Example 1142] ({CH2CO}-FYDWL[Bip]V[NMeA][Sar]NLISCG-NH2; thioether N-14)
620	CC(C)C[C@@H]1NC(=O)[C@H](CCCNC(=N)N)NC(=O)[C@H](Cc2ccccc2)N(C)C(=O)[C@H](C)N(C)C(=O)[C@H](CCCNC(=N)N)NC(=O)[C@H](Cc2ccc(-c3ccccc3)cc2)NC(=O)[C@H](C(C)C)NC(=O)[C@H](Cc2c[nH]c3ccccc23)NC(=O)[C@H](CC(=O)O)NC(=O)[C@H](Cc2ccc(O)cc2)NC(=O)[C@H](Cc2ccccc2)NC(=O)CSC[C@@H](C(=O)NCC(N)=O)NC(=O)[C@H](CO)NC(=O)[C@H](C(C)(C)C)NC1=O [Example 1143] ({CH2CO}-FYDWV[Bip]R[NMeA][NMeF]RL[Tle]SCG-NH2; thioether N-14)
630	CC(C)C[C@@H]1NC(=O)[C@H](Cc2c[nH]c3ccccc23)NC(=O)[C@H](CC(=O)O)NC(=O)[C@H](Cc2ccc(O)cc2)NC(=O)[C@H](Cc2ccccc2)NC(=O)CSC[C@@H](C(=O)N[C@@H](C)C(N)=O)NC(=O)[C@H](CO)NC(=O)[C@H](C(C)C)NC(=O)[C@H](CC2CC2)NC(=O)[C@H](CC(N)=O)NC(=O)CN(C)C(=O)[C@H](C)N(C)C(=O)[C@H](C(C)C)NC(=O)[C@H](Cc2ccc(-c3ccccc3)cc2)NC1=O [Example 1144] ({CH2CO}-FYDWL[Bip]V[NMeA][Sar]N[Ala(cPr)]VSCA-NH2; thioether N-14)
640	CC(C)C[C@@H]1NC(=O)[C@H](CC(N)=O)NC(=O)CN(C)C(=O)[C@H](C)N(C)C(=O)[C@H](C(C)C)NC(=O)[C@H](Cc2ccc(-c3ccccc3)cc2)NC(=O)[C@H](CC2CCCCC2)NC(=O)[C@H](Cc2c[nH]c3ccccc23)NC(=O)[C@H](CC(=O)O)NC(=O)[C@H](Cc2ccc(O)cc2)NC(=O)[C@H](Cc2ccccc2)NC(=O)CSC[C@@H](C(=O)NCC(N)=O)NC(=O)[C@H](CO)NC(=O)[C@H](C(C)C)NC1=O [Example 1145] ({CH2CO}-FYDW[Cha][Bip]V[NMeA][Sar]NLVSCG-NH2; thioether N-14)
650	CC(C)C[C@@H]1NC(=O)[C@H](Cc2c[nH]c3ccccc23)NC(=O)[C@H](CC(=O)O)NC(=O)[C@H](Cc2cc(F)c(F)c(F)c2)NC(=O)[C@H](Cc2ccccc2)NC(=O)CSC[C@@H](C(=O)N[C@@H](C)C(N)=O)NC(=O)[C@H](CO)NC(=O)[C@H](C(C)C)NC(=O)[C@H](CC(C)C)NC(=O)[C@H](CC(N)=O)NC(=O)CN(C)C(=O)[C@H](C)N(C)C(=O)[C@H](C(C)C)NC(=O)[C@H](Cc2ccc(-c3ccccc3)cc2)NC1=O [Example 1146] ({CH2CO}-F[Phe(3,4,5-F3)]DWL[Bip]V[NMeA][Sar]NLVSCA-NH2; thioether N-14)
660	CC(C)C[C@@H]1NC(=O)[C@H](CC(N)=O)NC(=O)CN(C)C(=O)[C@H](C)N(C)C(=O)[C@H](C(C)C)NC(=O)[C@H](Cc2ccc(-c3ccccc3)cc2)NC(=O)[C@H](CC2CCCC2)NC(=O)[C@H](Cc2c[nH]c3ccccc23)NC(=O)[C@H](CC(=O)O)NC(=O)[C@H](Cc2ccc(O)cc2)NC(=O)[C@H](Cc2ccccc2)NC(=O)CSC[C@@H](C(=O)N[C@@H](C)C(N)=O)NC(=O)[C@H](CO)NC(=O)[C@H](C(C)C)NC1=O [Example 1147] ({CH2CO}-FYDW[Ala(cPent)][Bip]V[NMeA][Sar]NLVSCA-NH2; thioether N-14)
670	CC(C)C[C@@H]1NC(=O)[C@H](Cc2c[nH]c3ccccc23)NC(=O)[C@H](CC(=O)O)NC(=O)[C@H](Cc2ccc(O)cc2)NC(=O)[C@H](Cc2ccccc2)NC(=O)CSC[C@@H](C(=O)NCC(N)=O)NC(=O)[C@H](CO)NC(=O)[C@H](C(C)C)NC(=O)[C@H](CC(C)C)NC(=O)[C@H](CC(N)=O)NC(=O)[C@H](CC(N)=O)N(C)C(=O)[C@H](C)N(C)C(=O)[C@H](C(C)C)NC(=O)[C@H](Cc2ccc(-c3ccccc3)cc2)NC1=O [Example 1148] ({CH2CO}-FYDWL[Bip]V[NMeA][NMeN]NLVSCG-NH2; thioether N-14)
690	CC(C)C[C@@H]1NC(=O)[C@H](CC(N)=O)NC(=O)CN(C)C(=O)[C@H](C)N(C)C(=O)[C@H](C(C)C)NC(=O)[C@H](Cc2ccc(-c3ccccc3)cc2)NC(=O)[C@H](C(C)C)NC(=O)[C@H](Cc2c[nH]c3ccccc23)NC(=O)[C@H](CC(=O)O)NC(=O)[C@H](Cc2ccc(O)cc2)NC(=O)[C@H](Cc2ccccc2)NC(=O)CSC[C@@H](C(=O)N[C@@H](C)C(N)=O)NC(=O)[C@H](CO)NC(=O)[C@H](C(C)C)NC1=O [Example 1149] ({CH2CO}-FYDWV[Bip]V[NMeA][Sar]NLVSCA-NH2; thioether N-14)
690	CC(C)C[C@@H]1NC(=O)[C@H](Cc2c[nH]c3ccccc23)NC(=O)[C@H](CC(=O)O)NC(=O)[C@H](Cc2ccc(O)cc2)NC(=O)[C@H](Cc2cnc[nH]2)NC(=O)CSC[C@@H](C(=O)NCC(N)=O)NC(=O)[C@H](CO)NC(=O)[C@H](C(C)C)NC(=O)[C@H](CC(C)C)NC(=O)[C@H](CC(N)=O)NC(=O)CN(C)C(=O)[C@H](C)N(C)C(=O)[C@H](C(C)C)NC(=O)[C@H](Cc2ccc(-c3ccccc3)cc2)NC1=O [Example 1150] ({CH2CO}-HYDWL[Bip]V[NMeA][Sar]NLVSCG-NH2; thioether N-14)
700	CC(C)C[C@@H]1NC(=O)[C@H](Cc2c[nH]c3ccccc23)NC(=O)[C@H](CC(=O)O)NC(=O)[C@H](Cc2ccc(O)cc2)NC(=O)[C@H](Cc2ccccc2)NC(=O)CSC[C@@H](C(=O)N[C@H](C)C(N)=O)NC(=O)[C@H](CO)NC(=O)[C@H](C(C)C)NC(=O)[C@H](CC(C)C)NC(=O)[C@H](CC(N)=O)NC(=O)CN(C)C(=O)[C@H](C)N(C)C(=O)[C@H](C(C)C)NC(=O)[C@H](Cc2ccc(-c3ccccc3)cc2)NC1=O [Example 1151] ({CH2CO}-FYDWL[Bip]V[NMeA][Sar]NLVSC[dA]-NH2; thioether N-14)
740	CC(C)C[C@@H]1NC(=O)[C@H](Cc2c[nH]c3ccccc23)NC(=O)[C@H](CC(=O)O)NC(=O)[C@H](Cc2ccc(O)cc2)NC(=O)[C@H](Cc2ccc(O)cc2)NC(=O)CSC[C@@H](C(=O)NCC(N)=O)NC(=O)[C@H](CO)NC(=O)[C@H](C(C)C)NC(=O)[C@H](CC(C)C)NC(=O)[C@H](CC(N)=O)NC(=O)CN(C)C(=O)[C@H](C)N(C)C(=O)[C@H](C(C)C)NC(=O)[C@H](Cc2ccc(-c3ccccc3)cc2)NC1=O [Example 1152] ({CH2CO}-YYDWL[Bip]V[NMeA][Sar]NLVSCG-NH2; thioether N-14)
760	CC(C)C[C@@H]1NC(=O)[C@H](Cc2c[nH]c3ccccc23)NC(=O)[C@H](CC(=O)O)NC(=O)[C@H](Cc2cnc[nH]2)NC(=O)[C@H](Cc2ccccc2)NC(=O)CSC[C@@H](C(=O)NCC(N)=O)NC(=O)[C@H](CO)NC(=O)[C@H](C(C)C)NC(=O)[C@H](CC(C)C)NC(=O)[C@H](CC(N)=O)NC(=O)CN(C)C(=O)[C@H](C)N(C)C(=O)[C@H](C(C)C)NC(=O)[C@H](Cc2ccc(-c3ccccc3)cc2)NC1=O [Example 1153] ({CH2CO}-FHDWL[Bip]V[NMeA][Sar]NLVSCG-NH2; thioether N-14)
790	CC(C)C[C@@H]1NC(=O)[C@H](Cc2c[nH]c3ccccc23)NC(=O)[C@H](CC(=O)O)NC(=O)[C@H](Cc2ccc(O)cc2)NC(=O)[C@H](C(C)C)NC(=O)CSC[C@@H](C(=O)NCC(N)=O)NC(=O)[C@H](CO)NC(=O)[C@H](C(C)C)NC(=O)[C@H](CC(C)C)NC(=O)[C@H](CC(N)=O)NC(=O)CN(C)C(=O)[C@H](C)N(C)C(=O)[C@H](C(C)C)NC(=O)[C@H](Cc2ccc(-c3ccccc3)cc2)NC1=O [Example 1154] ({CH2CO}-VYDWL[Bip]V[NMeA][Sar]NLVSCG-NH2; thioether N-14)
810	CC(C)C[C@@H]1NC(=O)[C@H](CC(N)=O)NC(=O)CN(C)C(=O)[C@H](C)N(C)C(=O)[C@H](C(C)C)NC(=O)[C@H](Cc2ccc(-c3ccccc3)cc2)NC(=O)[C@H](CC2CC2)NC(=O)[C@H](Cc2c[nH]c3ccccc23)NC(=O)[C@H](CC(=O)O)NC(=O)[C@H](Cc2ccc(O)cc2)NC(=O)[C@H](Cc2ccccc2)NC(=O)CSC[C@@H](C(=O)N[C@@H](C)C(N)=O)NC(=O)[C@H](CO)NC(=O)[C@H](C(C)C)NC1=O [Example 1155] ({CH2CO}-FYDW[Ala(cPr)][Bip]V[NMeA][Sar]NLVSCA-NH2; thioether N-14)
